According to PubChem BioAssay (NCI):
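Method: 48-hour compound exposure of cells in 96-well plates, five concentrations, linear interpolation of endpoints. Definition used: TGI = concentration required for complete inhibition of growth.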

Legend:
Experiment in all cases: NCI anticancer screen, dose series, 48 h
SK-MEL-5 melanoma = test system: SK-MEL-5 melanoma
OVCAR-3 ovarian = test system: OVCAR-3 ovarian
MDA-MB-435 = test system: MDA-MB-435
HL-60(TB) leukemia = test system: HL-60(TB) leukemia
BT-549 breast = test system: BT-549 breast
SF-268 CNS = test system: SF-268 CNS
A549 NSCLC = test system: A549 NSCLC
M14 melanoma = test system: M14 melanoma
UO-31 renal = test system: UO-31 renal
RPMI-8226 leukemia = test system: RPMI-8226 leukemia
SK-OV-3 ovarian = test system: SK-OV-3 ovarian
SK-MEL-2 melanoma = test system: SK-MEL-2 melanoma
COLO 205 colon = test system: COLO 205 colon
CAKI-1 renal = test system: CAKI-1 renal
IGROV1 ovarian = test system: IGROV1 ovarian
NCI/ADR-RES ovarian = test system: NCI/ADR-RES ovarian
MALME-3M melanoma = test system: MALME-3M melanoma
U251 CNS = test system: U251 CNS
DU-145 prostate = test system: DU-145 prostate
NCI-H522 lung = test system: NCI-H522 lung
RXF 393 renal = test system: RXF 393 renal
SW-620 colon = test system: SW-620 colon
MDA-N = test system: MDA-N
OVCAR-4 ovarian = test system: OVCAR-4 ovarian
HOP-62 NSCLC = test system: HOP-62 NSCLC
PC-3 prostate = test system: PC-3 prostate
NCI-H460 lung = test system: NCI-H460 lung
SNB-19 CNS = test system: SNB-19 CNS
OVCAR-5 ovarian = test system: OVCAR-5 ovarian
HCC-2998 colon = test system: HCC-2998 colon
MCF7 breast = test system: MCF7 breast
OVCAR-8 ovarian = test system: OVCAR-8 ovarian
CCRF-CEM leukemia = test system: CCRF-CEM leukemia
HS 578T breast = test system: HS 578T breast
MOLT-4 leukemia = test system: MOLT-4 leukemia
MDA-MB-231 breast = test system: MDA-MB-231 breast
T-47D breast = test system: T-47D breast
HT29 colon = test system: HT29 colon
UACC-257 melanoma = test system: UACC-257 melanoma
HCT-116 colon = test system: HCT-116 colon
EKVX NSCLC = test system: EKVX NSCLC
SN12C renal = test system: SN12C renal
UACC-62 melanoma = test system: UACC-62 melanoma
K-562 leukemia = test system: K-562 leukemia
SR leukemia = test system: SR leukemia
SK-MEL-28 melanoma = test system: SK-MEL-28 melanoma
TK-10 renal = test system: TK-10 renal
NCI-H23 lung = test system: NCI-H23 lung
HCT-15 colon = test system: HCT-15 colon
LOX IMVI melanoma = test system: LOX IMVI melanoma
SF-295 CNS = test system: SF-295 CNS
KM12 colon = test system: KM12 colon
NCI-H226 lung = test system: NCI-H226 lung
786-0 renal = test system: 786-0 renal
ACHN renal = test system: ACHN renal
SF-539 CNS = test system: SF-539 CNS
SNB-75 CNS = test system: SNB-75 CNS
HOP-92 NSCLC = test system: HOP-92 NSCLC

Structure (SMILES): CN(C)CCc1ccnc2nc(-c3ccc4ccccc4c3)cn12
- TGI (SK-MEL-5 melanoma): > 100 µM
- TGI (OVCAR-3 ovarian): 72 µM
- TGI (MDA-MB-435): > 100 µM
- TGI (HL-60(TB) leukemia): > 100 µM
- TGI (BT-549 breast): 69 µM
- TGI (SF-268 CNS): 77.5 µM
- TGI (A549 NSCLC): > 100 µM
- TGI (M14 melanoma): > 100 µM
- TGI (UO-31 renal): > 100 µM
- TGI (RPMI-8226 leukemia): > 100 µM
- TGI (SK-OV-3 ovarian): > 100 µM
- TGI (SK-MEL-2 melanoma): > 100 µM
- TGI (COLO 205 colon): > 100 µM
- TGI (CAKI-1 renal): > 100 µM
- TGI (IGROV1 ovarian): 81.8 µM
- TGI (NCI/ADR-RES ovarian): 85.3 µM
- TGI (MALME-3M melanoma): > 100 µM
- TGI (U251 CNS): > 100 µM
- TGI (DU-145 prostate): > 100 µM
- TGI (NCI-H522 lung): 24.8 µM
- TGI (RXF 393 renal): > 100 µM
- TGI (SW-620 colon): 47.7 µM
- TGI (MDA-N): > 100 µM
- TGI (OVCAR-4 ovarian): > 100 µM
- TGI (HOP-62 NSCLC): > 100 µM
- TGI (PC-3 prostate): > 100 µM
- TGI (NCI-H460 lung): 34.1 µM
- TGI (SNB-19 CNS): > 100 µM
- TGI (OVCAR-5 ovarian): > 100 µM
- TGI (HCC-2998 colon): 37.2 µM
- TGI (MCF7 breast): > 100 µM
- TGI (OVCAR-8 ovarian): 92.7 µM
- TGI (CCRF-CEM leukemia): > 100 µM
- TGI (HS 578T breast): 52.8 µM
- TGI (MOLT-4 leukemia): > 100 µM
- TGI (MDA-MB-231 breast): > 100 µM
- TGI (T-47D breast): > 100 µM
- TGI (HT29 colon): 38.9 µM
- TGI (UACC-257 melanoma): > 100 µM
- TGI (HCT-116 colon): > 100 µM
- TGI (EKVX NSCLC): > 100 µM
- TGI (SN12C renal): 75.9 µM
- TGI (UACC-62 melanoma): > 100 µM
- TGI (K-562 leukemia): > 100 µM
- TGI (SR leukemia): > 100 µM
- TGI (SK-MEL-28 melanoma): > 100 µM
- TGI (TK-10 renal): 40.7 µM
- TGI (NCI-H23 lung): 46.2 µM
- TGI (HCT-15 colon): > 100 µM
- TGI (LOX IMVI melanoma): 65 µM
- TGI (SF-295 CNS): > 100 µM
- TGI (KM12 colon): 44.3 µM
- TGI (NCI-H226 lung): > 100 µM
- TGI (786-0 renal): 63.2 µM
- TGI (ACHN renal): > 100 µM

Structure (SMILES): CCSC1=N/C(=C/c2ccccc2O)C(=O)N1
- TGI (SK-MEL-5 melanoma): > 100 µM
- TGI (OVCAR-3 ovarian): > 100 µM
- TGI (SF-539 CNS): 91.8 µM
- TGI (MDA-MB-435): > 100 µM
- TGI (HL-60(TB) leukemia): > 100 µM
- TGI (BT-549 breast): > 100 µM
- TGI (SF-268 CNS): > 100 µM
- TGI (A549 NSCLC): > 100 µM
- TGI (M14 melanoma): > 100 µM
- TGI (UO-31 renal): > 100 µM
- TGI (RPMI-8226 leukemia): > 100 µM
- TGI (SK-OV-3 ovarian): > 100 µM
- TGI (SK-MEL-2 melanoma): > 100 µM
- TGI (COLO 205 colon): > 100 µM
- TGI (CAKI-1 renal): > 100 µM
- TGI (IGROV1 ovarian): > 100 µM
- TGI (SNB-75 CNS): 72.1 µM
- TGI (NCI/ADR-RES ovarian): > 100 µM
- TGI (MALME-3M melanoma): > 100 µM
- TGI (U251 CNS): > 100 µM
- TGI (DU-145 prostate): > 100 µM
- TGI (NCI-H522 lung): > 100 µM
- TGI (RXF 393 renal): 68.1 µM
- TGI (SW-620 colon): > 100 µM
- TGI (MDA-N): > 100 µM
- TGI (HOP-62 NSCLC): > 100 µM
- TGI (PC-3 prostate): > 100 µM
- TGI (NCI-H460 lung): > 100 µM
- TGI (SNB-19 CNS): > 100 µM
- TGI (OVCAR-5 ovarian): > 100 µM
- TGI (HCC-2998 colon): > 100 µM
- TGI (MCF7 breast): > 100 µM
- TGI (OVCAR-8 ovarian): > 100 µM
- TGI (CCRF-CEM leukemia): > 100 µM
- TGI (HS 578T breast): > 100 µM
- TGI (MOLT-4 leukemia): > 100 µM
- TGI (MDA-MB-231 breast): > 100 µM
- TGI (T-47D breast): > 100 µM
- TGI (HT29 colon): > 100 µM
- TGI (UACC-257 melanoma): > 100 µM
- TGI (HCT-116 colon): > 100 µM
- TGI (EKVX NSCLC): > 100 µM
- TGI (SN12C renal): > 100 µM
- TGI (UACC-62 melanoma): > 100 µM
- TGI (K-562 leukemia): > 100 µM
- TGI (SR leukemia): > 100 µM
- TGI (SK-MEL-28 melanoma): > 100 µM
- TGI (NCI-H23 lung): > 100 µM
- TGI (HCT-15 colon): > 100 µM
- TGI (HOP-92 NSCLC): > 100 µM
- TGI (LOX IMVI melanoma): > 100 µM
- TGI (SF-295 CNS): > 100 µM
- TGI (KM12 colon): > 100 µM
- TGI (NCI-H226 lung): > 100 µM
- TGI (786-0 renal): > 100 µM
- TGI (ACHN renal): > 100 µM
